Test results reported in patent US9266868B2, “Crystalline form of rivaroxaban dihydrate” (SANDOZ AG, priority 2010, dated 2016).

Columns and labels:
[1] = cited from earlier work; for solubility (in words): WO 2007/039132, CHMP assessment report EMEA/H/C/000944
[2] = Polymorphic stability of Rivaroxaban dihydrate on storage (infrared spectroscopy); type: physicochemical; conditions: about 25° C., relative humidity of about 76%, 6 weeks
Method: Infrared spectra (IR) were collected on a MKII Golden Gate™ Single Reflection Diamond ATR (attenuated total reflection) cell with a Bruker Tensor 27 FTIR spectrometer with 4 cm-1 resolution at ambient conditions. To collect a spectrum a spatula tip of a sample was applied to the surface of the diamond in powder form. Then the sample was pressed onto the diamond with a sapphire anvil and the spectrum was recorded. A spectrum of the clean diamond was used as background spectrum. A typical precision of the wavenumber values is in the range of about ±2 cm-1. Thus, an infrared peak that appears at 1716 cm-1 can appear between 1714 and 1718 cm-1 on most infrared spectrometers under standard conditions. […]

[3] = Moisture desorption isotherm / exposure to low relative humidity; type: physicochemical; conditions: for relative humidity at which the dihydrate converts to an anhydrate form: 25° C., FIG. 7
Method: The moisture desorption isotherm were recorded with a SPS-11 moisture sorption analyzer (MD Messtechnik, Ulm, and D). The measurement cycle was performed by a decrease relative humidity (RH) in 10% steps. The equilibrium condition for each step was set to a mass constancy of ±0.001% over 50 min. The temperature was 25° C.±01° C.

In the case of `O=C(NC[C@H]1CN(c2ccc(N3CCOCC3=O)cc2)C(=O)O1)c1ccc(Cl)s1` [Form I of Rivaroxabin, 5-Chloro-N-({(5S)-2-oxo-3-[4-(3-oxomorpholin-4-yl]phenyl)-1,3-oxazolidin-5-yl}methyl)thiophene-2-carboxamide], the “solubility (in words)” value [1] is listed as “relatively low solubility”.

For `O=C(NC[C@H]1CN(c2ccc(N3CCOCC3=O)cc2)C(=O)O1)c1ccc(Cl)s1` [Modification II], the “higher solubility compared to modification I” value ([1]; described in WO 2007/039132) is given as 4 fold.

In the case of `O=C(NC[C@H]1CN(c2ccc(N3CCOCC3=O)cc2)C(=O)O1)c1ccc(Cl)s1` [amorphous form], the “solubility (in words)” value [1] is given as “higher solubility in comparison to modification I”.

For `O=C(NC[C@H]1CN(c2ccc(N3CCOCC3=O)cc2)C(=O)O1)c1ccc(Cl)s1` [crystalline dihydrate of Rivaroxaban, Rivaroxaban Dihydrate], the “polymorphic stability on storage” value ([2]; listed as Rivaroxaban Dihydrate) was “polymorphic stable”, the “polymorphic stability on storage” value ([2]; listed as crystalline dihydrate) was “does not convert to other polymorphic forms” and the “relative humidity at which the dihydrate converts to an anhydrate form” value [3] was “less than 20%”. The “relative humidity at which the dihydrate converts to an anhydrate form” value ([3]; listed as dihydrate of Rivaroxaban) was “about 25%” and the “exposure time to low relative humidity sufficient for transformation into anhydrate form” value ([3]; less than 20% relative humidity) was “about one”.

In the case of `O=C(NC[C@H]1CN(c2ccc(N3CCOCC3=O)cc2)C(=O)O1)c1ccc(Cl)s1.O=CO` [formic acid solvate of Rivaroxaban, Rivaroxaban.Formic Acid Solvate], the “stability on storage at low relative humidity” value (less than about 20% relative humidity at 25° C.) is reported as “stable”, the “behaviour on storage at higher relative humidity” value (relative humidity of more than 20%, e.g. 30%, 60% or 97%) is reported as “formic acid is lost and the dihydrate of Rivaroxaban is formed” and the “behaviour on suspending in aqueous medium” value (suspended in aqueous medium) is reported as “pure dihydrate of Rivaroxaban is formed”.
